Patent publication US8518889B2, “Method of treating cancer with antibodies against long-form leukotriene B4 receptor BLT2” (Korea University Research & Business Foundation, priority 2007, dated 2013)

Key:
[1] = system: MCF-7 cells; conditions: LY255283 10 μM, epirubicin 100 ng/ml
[2] = system: human pancreatic cancer cells; conditions: cited from earlier work

## COc1cccc2c1C(=O)c1c(O)c3c(c(O)c1C2=O)C[C@@](O)(C(=O)CO)C[C@@H]3O[C@H]1C[C@H](N)[C@@H](O)[C@H](C)O1 [Epirubicin]
[1]
  DNA fragmentation / cell death: only tiny increase in cell death

## CCCc1c(OCCCOc2cc(O)c(-c3ccc(F)cc3)cc2CC)cccc1Oc1ccccc1C(=O)O [LY293111]
[2]
  growth and apoptosis of human pancreatic cancer cells: inhibited the growth of and induced apoptosis of
